Experimental data: US20040259905A1, “Aqueous ecabet sodium solution preparation” (priority 2001, published 2004)
Structures can show the parent of a compound that is named as a salt.

Test: Solubility of ecabet sodium in aqueous solution
Format: physicochemical
Details: pH less than pH 7

solubility in an aqueous solution: low
SMILES: CC(C)c1cc2c(cc1S(=O)(=O)O)[C@@]1(C)CCC[C@@](C)(C(=O)O)[C@@H]1CC2 [ecabet sodium, (+)-(1R,4aS,10aR)-1,2,3,4,4a,9,10,10a-octahydro-1,4a-dimethyl-7-(1-methylethyl)-6-sulfo-1-phenanthrencarboxylic acid 6-sodium salt pentahydrate]
